Common to all, as to format: cell-based
For series [1], the system named is SARS-CoV-2 (nCoV-2019BetaCoV/Wuhan/WIV04/2019 strain). The experiment in a line: microbe, parasite or virus in culture. Particulars: for inhibition of viral RNA load in the cells: Vero E6, dose-dependent; for EC50: Severe acute respiratory syndrome coronavirus 2, Vero C1008, Vero E6 cells, viral RNA copy number, read-out: EC50 against SARS-CoV-2.
A short description of series [2]: Cytotoxicity test of drug, CCK-8 kit. The following applies: African green monkey; Vero E6 cells; CCK-8; 48 hours. Here is the method:
(§1) (5) Cytotoxicity test of drug
(§2) The detection of the drug cytotoxicity was performed using CCK-8 kit (Beoytime). Specific steps were as follows:
(§3) 1) 1×104 Vero E6 (ATCC) cells were placed in a 96-well plate and incubated at 37° C. for 8 hours.
(§4) 2) The drug was diluted with DMSO to an appropriate concentration of mother liquor, and then diluted with MEM medium (purchased from Gibco, Catalog No. 10370021) containing 2% FBS (purchased from Gibco, Catalog No. 16000044) to the same concentration as that for the drug treatment. The original medium in the 96-well plate was discarded, 100 μL of drug-containing MEM medium was added to the cells, and three replicate wells were prepared for each concentration. Vehicle control (DMSO and medium were added to the cell wells, without adding drug) and blank control (DMSO and medium were added to the wells, without cells) were set up. After the drug was added, the cells were cultured at 37° C. for 48 hours.
(§5) 3) 20 μL of CCK-8 solution (Beoytime) was added to the well to be tested, mixed gently, without generating bubbles, and continuously incubated at 37° C. for 2 hours. OD450 was read on a microplate reader (purchased from Molecular Devices, Model:SpectraMax M5), and cell viability was calculated:
(§6) Cell activity(%)=(A(drug treatment group)−A(blank control))/(A(vehicle control)−A(blank control))×100%
(§7) wherein A was the reading of the microplate reader.

The test system of series [3] is Vero E6 cells. The series is described as follows: Cytotoxicity test of drug, CCK-8 kit. Particulars: at below 10 μM, FIG. 1. On the procedure: as §1, §2, §3, §4, §5, §6, §7
Series [4] concerns influenza virus A/PR/8. The series is described as follows: microbe, parasite or virus in culture. Particulars: unidentified influenza virus, MDCK, 72 h, read-out: EC50 influenza virus A/PR/8 (PR8-MDCK).
The subject of series [5] is influenza virus A/California/07/2009. The experiment in a line: microbe, parasite or virus in culture. Particulars: unidentified influenza virus, MDCK, 72 h, read-out: EC50 influenza virus A/California/07/2009 (CA07-MDCK).
Series [6] has as its system influenza virus A/Hongkong/08/1968. The experiment in a line: microbe, parasite or virus in culture. Particulars: unidentified influenza virus, MDCK, 72 h, read-out: EC50 influenza virus A/Hongkong/08/1968 (HK68-MDCK).
In series [7] the test system is influenza virus A/Zhenxing1109/2010. The series is described as follows: microbe, parasite or virus in culture. Particulars: unidentified influenza virus, MDCK, 72 h, read-out: EC50 influenza virus A/Zhenxing1109/2010 (ZX1109-MDCK).
In series [8] the test system is influenza virus B/Lee/40. The experiment in a line: microbe, parasite or virus in culture. The following applies: unidentified influenza virus, MDCK, 72 h, read-out: EC50 influenza virus B/Lee/40 (Blee-MDCK).
A short description of series [9]: Cytotoxicity test of the drug on MDCK (CellTiter-Glo). Particulars: dog, MDCK cells. Here is the method: (2) Cytotoxicity test of the drug
1) MDCK cell (purchased from ATCC, Catalog:CCL-34) was inoculated into a 96-well plate at a concentration of 1.5×10^4 cell/well, wherein the medium is DMEM (purchased from Gibco, Catalog No.: 11995065) containing 10% FBS (purchased from Gibco, Catalog No.: 16000044), and cultured for 24 hrs at 37° C. in a CO2 incubator.
2) Before the experiment, the cells were wahsed 3 times with PBS (purchased from Gibco, Catalog No.: 10010049), 150 μL of D/F-12 medium (purchased from Gibco, Catalog No.: 11330032) containing 2 μg/mL TPCK (purchased from Sigma, Catalog No.:T1426) was added. […]
3) Buffer and substrate of CellTiter-Glo® Luminescent Cell Viability Assay Kit (purchased from Promega, Catalog No.:G7573) were mixed in dark as the work solution. […] After stabilizing the signal in dark for 5 min, chemiluminescence was determined by an enzyme-labeled instrument (purchased from Molecular Devices, SpectraMax M5), the plate reading program was the CellTiter-Glo preset program, and the cytotoxicity was calculated: […]
(§8) wherein A was the reads from the enzyme-labeled instrument.
For orientation: ATP-based viability assays read luminescence as a measure of living cells.

The test system of series [10] is zika virus strain SZ-SMGC-01. The series is described as follows: Anti-zika virus activity in BHK or Vero cells (CellTiter-Glo). Particulars: preliminary test results. Here is the method: (1) Evaluation of anti-zika virus activity of the drug
1) BHK cells (preserved in Academy of Military Medical Sciences) or Vero cells (preserved in Academy of Military Medical Sciences) were inoculated into a 96 wells plate at a concentration of 5×10^3 cells/well for BHK cells and 1×10^4 cells/well for Vero cells, wherein the medium is DMEM (purchased from Gibco, Catalog No.: 11995065) containing 10% FBS (purchased from Gibco, Catalog No.: 16000044), and cultured for 24 hrs at 37° C. in a CO2 incubator.
2) The culture medium in the 96-well plate was discarded, 100 μL of DMEM medium (purchased from Gibco, Catalog No.:11995065) containing 2% FBS (purchased from Gibco, Catalog No.: 16000044) was added. […] Finally, 50 μL of the zika virus strain SZ-SMGC-01 (preserved in Academy of Military Medical Sciences) diluted with DMEM medium containing 2% FBS was added to reach 100 TCID50 for each well. […]
3) Buffer and substrate of CellTiter-Glo® Luminescent Cell Viability Assay Kit (purchased from Promega, Catalog No.:G7573) were mixed in dark as the work solution. […] After stabilizing the signal in dark for 2 min, chemiluminescence was determined by an enzyme-labeled instrument (purchased from Molecular Devices, SpectraMax M5), the plate reading program was the CellTiter-Glo preset program, and the cell viability was calculated: […]
as §8

The subject of series [11] is bunya virus. The following applies: preliminary test results; Huh7 cells.
In series [12] the test system is enterovirus strain CB3. The series is described as follows: Anti-enterovirus activity in Vero cells (CellTiter-Glo). Here is the method:
(1) Evaluation of anti-enterovirus activity of the drug
1) Vero cells (purchased from ATCC, Catalog No.:CCL-81) were inoculated into a 96 wells plate at a concentration of 1×10^4 cells/well, wherein the medium is DMEM (purchased from Gibco, Catalog No.: 11995065) containing 2% FBS (purchased from Gibco, Catalog No.: 16000044), and cultured for 24 hrs at 37° C. in a CO2 incubator.
2) Before the experiment, the cells were wahsed 3 times with PBS (purchased from Gibco, Catalog No.: 10010049), 100 μL of DMEM medium (purchased from Gibco, Catalog No.:11995065) containing 2% FBS (purchased from Gibco, Catalog No.: 16000044) was added. […] Finally, 50 μL of the enterovirus strain CB3 (preserved in Academy of Military Medical Sciences) diluted with DMEM medium containing 2% FBS was added to reach 100 TCID50 for each well. […]
3) Buffer and substrate of CellTiter-Glo® Luminescent Cell Viability Assay Kit (purchased from Promega, Catalog No.:G7573) were mixed in dark as the work solution. […] After stablizing the signal in dark for 3 min, chemiluminescence was determined by an enzyme-labeled instrument (purchased from Molecular Devices, SpectraMax M5), the plate reading program was the CellTiter-Glo preset program, and the cell viability was calculated: […]
as §8

The test system of series [13] is EV71. The experiment in a line: Anti-enterovirus activity, EV71-RD. Particulars: Enterovirus A, RD cells.
For series [14], the system named is EVD68. The experiment in a line: Anti-enterovirus activity, EVD68-RD. Particulars: RD cells.
Series [15] has as its system CA16. The experiment in a line: Anti-enterovirus activity, CA16-RD. The following applies: RD cells.
Series [16] concerns CA6. The series is described as follows: Anti-enterovirus activity, CA6-RD. The following applies: RD cells.
For series [17], the system named is Vero cells. The experiment in a line: Cytotoxicity test of the drug, enterovirus example (CellTiter-Glo). Particulars: enterovirus table; cell line not given.

Where two headings read alike, the source gives them in different places.

By CC50 is commonly meant the concentration giving 50% cytotoxicity. Read a high CC50 as better tolerance by the cells. Regarding `CCn1c(CO)nn(-c2cc(O[C@@H](C)C(F)(F)F)c(C(=O)Nc3c(F)cccc3Cl)cc2F)c1=O` [BAY 2402234], the “inhibition of viral RNA load in the cells” value was “can inhibit the viral RNA load” in series [1] (24 h after infection by SARS-CoV-2, FIG. 1(a)) and “can inhibit the viral RNA load” in series [1] (48 h after infection by SARS-CoV-2, FIG. 1(b)). The EC50 turned out to be 7 nM in series [1] (24 hours after the infection); 2.7 nM in series [1] (48 hours after the infection); 10 ± 0.3 nM in series [4]; 30 ± 9 nM in series [5]; 7 nM in series [6]; 40 nM in series [7]. Moreover, the EC50 in series [8] is 30 nM; in series [12] (Enterovirus, 120 h, Vero cells, 5 days), less than 50 nM; in series [13], greater than 100000 nM; in [14] it was greater than 100000 nM; in series [15] it was greater than 100000 nM; in [16], greater than 100000 nM. The “inhibition of replication of the SARS-CoV-2 virus genome in the infected supernatant” value in [1] (at 10 μM, 3.3 μM, 1.1 μM, 0.3 μM, 0.1 μM and 0.03 μM, FIG. 1) is recorded as “could effectively inhibit the replication”. Further, in [2], the midpoint of cytotoxicity, the CC50 at 48 h, lay at 199000 nM. For the same compound, the “effect on cell viability (cytotoxicity)” value in series [3] was “did not change the cell viability”. For the same compound, it took 270 nM to reach half-maximal cytotoxicity in series [9] (CC50 at 72 h). Further, in series [10], the “inhibitory effect on zika virus” value is on record as “had inhibitory effect”. Also, the “inhibitory effect on bunya virus” value in [11] is “had inhibitory effect”. Moreover, the “inhibitory effect on enterovirus” value in series [12] (preliminary test results) is reported as “had inhibitory effect”. This compound also showed a CC50 in [17] greater than 300000 nM.

(Values after patent publication US20220193039A1, “APPLICATION OF 2,4,5-TRISUBSTITUTED 1,2,4-TRIAZOLONES IN ANTIVIRAL THERAPY” (priority 2020, published 2022).)
